Experimental data taken from patent US3940479A (Meiji Seika Kaisha, Ltd., priority 1974, dated 1976).

What follows are compounds tested on Bacillus polymyxa BN-109 (assay: Sensitivity of producing strain BN-109 towards antibiotics (disc method)).
Type: cell-based
Text: 14. Sensitivity towards antibiotics (disc method):

Row | Compound | Sensitivity towards antibiotics
1 | [H]/N=C(/N)N[C@H]1[C@H](O)[C@@H](O)[C@H](O[C@@H]2O[C@@H](C)[C@](O)(C=O)[C@H]2O[C@@H]2O[C@@H](CO)[C@H](O)[C@@H](O)[C@@H]2NC)[C@@H](N/C(N)=N\[H])[C@@H]1O [Streptomycin] | Sensitive
2 | O=C(Cc1cccs1)N[C@@H]1C(=O)N2C(C(=O)[O-])=C(C[n+]3ccccc3)CS[C@H]12 [cephalolidin] | Sensitive
3 | O=C(N[C@H](CO)[C@H](O)c1ccc([N+](=O)[O-])cc1)C(Cl)Cl [chloramphenical] | Sensitive
4 | CC[C@H]1OC(=O)[C@H](C)[C@@H](O[C@H]2C[C@@](C)(OC)[C@@H](O)[C@H](C)O2)[C@H](C)[C@@H](O[C@@H]2O[C@H](C)C[C@H](N(C)C)[C@H]2O)[C@](C)(O)C[C@@H](C)C(=O)[C@H](C)[C@@H](O)[C@]1(C)O [erythromycin] | Sensitive
5 | NC[C@H]1O[C@H](O[C@H]2[C@H](O)[C@@H](O[C@H]3O[C@H](CO)[C@@H](O)[C@H](N)[C@H]3O)[C@H](N)C[C@@H]2N)[C@H](O)[C@@H](O)[C@@H]1O [kanamycin] | Sensitive
6 | CCn1cc(C(=O)O)c(=O)c2ccc(C)nc21 [nalidixic acid] | Sensitive
7 | CC1(C)S[C@@H]2[C@H](NC(=O)Cc3ccccc3)C(=O)N2[C@H]1C(=O)O [penicillin] | Sensitive
8 | CN(C)C1C(=O)C(C(N)=O)=C(O)C2(O)C(=O)C3=C(O)c4c(O)cccc4C(C)(O)C3CC12 (centres unmarked) [tetracyclin] | Sensitive
9 | NC[C@H]1O[C@H](O[C@H]2[C@H](O[C@@H]3O[C@H](CO)[C@@H](O)[C@H]3O)[C@@H](O)[C@H](N)C[C@@H]2N)[C@H](N)[C@@H](O)[C@@H]1O [vistamycin] | Sensitive
10 | Polymyxin B | Resistant
11 | colistin | Resistant
